These results are taken from patent US5030458A, “Method for preventing diet-induced carnitine deficiency in domesticated dogs and cats” (priority 1989, dated 1991).

Values joined by “and” are separate entries in the source; they are usually repeats but may differ in a detail not shown here. Equal values may be shown once. “Also recorded” adds a separate entry of the source. Read-outs that look alike come from different tables or passages of the source.

For series [1] the following is noted: cited from earlier work.
The conditions of series [2]: mammalian species; cited from earlier work.
Series [3] concerns cardiomyopathy. To be noted: restoration toward normal of deficient L-Carnitine levels; hamsters; cited from earlier work.
Series [4] concerns cardiomyopathy. To be noted: restoration toward normal of deficient L-Carnitine levels; dogs; cited from earlier work.
For series [5] the following is noted: rats; cited from earlier work.
For series [6] the following is noted: human; approaching; cited from earlier work.
The conditions of series [7]: cited from earlier work. This is another data set of the same source.
Series [8] concerns fatty acid oxidation in muscle homogenates. To be noted: certain L-Carnitine deficient patients; cited from earlier work.
Series [9] can be described thus: Plasma carnitine concentrations in Greyhound dogs on commercial dog food supplemented with L-Carnitine (ground beef). It counts as in vivo. To be noted: for concentration at 168 h / concentration at 336 h: dog, plasma, po, 350 mg/animal/day. On the procedure:
Six apparently healthy Greyhound dogs were determined to be normal by physical examination, fecal flotation, complete blood count, serum biochemical profile, ECG, and echocardiography. They were fed a standard commercial dog food diet free choice for a one-month control period. Control plasma samples (as well as subsequent test samples) were obtained following an eight-hour fast on two consecutive days for analysis of total, free, and esterified L-Carnitine concentration. The average of the plasma L-Carnitine concentration on two consecutive days was taken for each dog and each measuring period. Following the control period, all of the dogs were continued for two weeks on the standard commercial dog food diet supplemented with L-Carnitine. The L-Carnitine supplement was in the form of 0.5 kg per dog per day of raw frozen lean ground beef. This was equivalent to a daily supplement of 350 mg. of L-Carnitine per dog. Plasma samples were drawn on days 7 and 8 (averaged for the one-week measurement) and days 13 and 14 (averaged for the two-week measurement) for L-Carnitine analysis. Differences between the means of each test period and control were determined by the Student's t test.

Series [10] is described as follows: Renal reabsorption of L-Carnitine in dogs. It counts as in vivo, dog.
Series [11] in a line: Changes in serum L-Carnitine following oral administration of gamma-butyrobetaine. The class given is in vivo. To be noted: administering GBB to a dog. An excerpt: Changes in serum L-Carnitine following oral
administration of 5 grams of gamma-butyro-betaine. Amounts

The subject of series [12] is carnitine deficiency syndromes. To be noted: humans; U.S. Pat. No. 4,382,092; cited from earlier work.

Turning to `C[N+](C)(C)C[C@H](O)CC(=O)[O-]` [L-Carnitine], the Solubility in water entry in [1] is recorded as “extremely soluble in water”. The “L-Carnitine concentration in cardiac and skeletal muscle relative to serum” value in series [2] is recorded as “much higher than in serum”. Also, the Myocardial function entry in series [3] and in series [4] was “improved myocardial function” throughout. The “Plasma carnitine concentration, average” value in series [5] was 56.5 ± 2.2 µM. The Renal reabsorption in [6] is ~100%. For the same compound, the “Plasma total carnitine, mean” value in [7] (human females) was 51.5 ± 11.6 µM; in [7] (human males), 59.3 ± 11.9 µM. In series [8], the “Fatty acid oxidation in muscle homogenates” value was “restoration to normal of fatty acid oxidation”. Further, the concentration was 60.5 µM and 52.5 µM and 55.6 µM and 56 µM and 51.7 µM in [9] (Week 1, individual dogs 1-6, ground beef 0.5 kg/day/dog (350 mg L-Carnitine/day), 10080 min, read-out: Plasma carnitine concentration, Free); 70.7 µM and 57.2 µM and 63.1 µM and 58.1 µM and 56.3 µM in [9] (Week 1, individual dogs 1-6, ground beef 0.5 kg/day/dog (350 mg L-Carnitine/day), 10080 min, read-out: Plasma carnitine concentration, Total); 62.2 µM and 52.7 µM and 52 µM and 58.5 µM and 41 µM in [9] (Week 2, individual dogs 1-6, ground beef 0.5 kg/day/dog (350 mg L-Carnitine/day), 20160 min, read-out: Plasma carnitine concentration, Free); 65.7 µM and 58.1 µM and 56.3 µM and 66.3 µM and 43.2 µM in series [9] (Week 2, individual dogs 1-6, ground beef 0.5 kg/day/dog (350 mg L-Carnitine/day), 20160 min, read-out: Plasma carnitine concentration, Total). Also, the “Plasma total L-Carnitine concentration (in words)” value in [9] (diet supplemented with L-Carnitine) is listed as “significantly increased; also recorded: stabilizes in a range that is considered normal; also recorded: dramatically increase the plasma concentration of L-Carnitine in dogs”. Moreover, the concentration at 168 h in series [9] (Week 1, average of 6 dogs, S.D. ±3.5, ** p ≤ 0.01 vs control, read-out: Plasma carnitine concentration, Free, AVG) came out at 55.9 µM; in [9] (Week 1, average of 6 dogs, S.D. ±6.5, * p ≤ 0.05 vs control, read-out: Plasma carnitine concentration, Total, AVG), 62.5 µM; in series [9] (Week 1, individual dogs 1-6, ground beef 0.5 kg/day/dog (350 mg L-Carnitine/day), read-out: Plasma carnitine concentration, Free), 58.9 µM; in series [9] (Week 1, individual dogs 1-6, ground beef 0.5 kg/day/dog (350 mg L-Carnitine/day), read-out: Plasma carnitine concentration, Total), 70.1 µM. Also, the concentration at 336 h stood at 51.9 µM in series [9] (Week 2, average of 6 dogs, S.D. ±8.0, * p ≤ 0.05 vs control, read-out: Plasma carnitine concentration, Free, AVG); 57 µM in [9] (Week 2, average of 6 dogs, S.D. ±8.6, read-out: Plasma carnitine concentration, Total, AVG); 44.9 µM in series [9] (Week 2, individual dogs 1-6, ground beef 0.5 kg/day/dog (350 mg L-Carnitine/day), read-out: Plasma carnitine concentration, Free); 52.4 µM in [9] (Week 2, individual dogs 1-6, ground beef 0.5 kg/day/dog (350 mg L-Carnitine/day), read-out: Plasma carnitine concentration, Total). In series [10], the “Renal reabsorption, average” value is on record as “approximately 75%”.
As to `C[N+](C)(C)CCCC(=O)[O-]` [gamma-butyro-betaine, gamma-butyrobetaine], the “Effect on serum L-Carnitine (in words)” value in series [11] is given as “produces a concomitant use in serum L-Carnitine”. Besides, the “Alleviation of carnitine deficiency syndromes” value in series [12] is listed as “used successfully to alleviate carnitine deficiency syndromes in humans”.
